This assay relates to SU-DHL-4 cells. In words: Inhibitory effect on cell viability (Cell Counting Kit-8). The class given is cell-based. The following applies: Homo sapiens, 72 hours culture with test compound, concentration showing 90% inhibition rate of cell viability. Here is the method:
Inhibitiory Effect on Cell Viability
SU-DHL-4 cells (Code No. ACC 495, Deutsche Sammlung von Mikroorganismen and Zellkulturen GmbH) were cultured at 37° C. using a carbon dioxide incubator (95% air, 5% CO2) in RPMI1640 medium (Code No. 11875-093, Thermo Fisher Scientific) in which inactivated fetal bovine serum (FBS: Code No. 10099-148, Thermo Fisher Scientific) in an amount to give a final concentration of 10 vol % and penicillin/streptomycin solution (PS: Code No. 15140-122, Thermo Fisher Scientific) in an amount to give a final concentration of 1 vol % were added. The cells were passaged twice a week at a volume of 20-40 mL so as to maintain a cell concentration of 1×10^6 cells/mL or less.
The cultured SU-DHL-4 cells were seeded at 2000 cells/well in a transparent 384-well plate (Code No. 781182, Greiner bio-one). After seeding, the cells were precultured at 37° C. in a carbon dioxide gas incubator for 18 to 25 hours. Next, 1, 0.1 or 0.01 mmol/L DMSO solution of the test compound was prepared and a 9-step dilution series were prepared so that the concentration will be 200 times the final concentration in the RPMI1640 medium containing the above FBS and PS, and 1/200 volume of the dilution series were added to each well. At this time, the final concentration of DMSO was adjusted to be 0.1 vol %. After adding the test compound, the cells were cultured at 37° C. in a carbon dioxide gas incubator for 72 hours. Next, 0.020 mL of Cell Counting Kit-8 (Code No. CK04, DOJINDO) solution diluted 2-fold or 4-fold with phosphate buffered saline (PBS) was added to each well. Color reaction was carried out in a carbon dioxide gas incubator at 37° C. for 2 to 3 hours, and the absorbance at a wavelength of 450 nm was measured using SpectraMax 340PC (Molecular Devices). The inhibition rate of cell viability was calculated by the following formula, and the concentration of the test compound (IC90 value) showing a 90% inhibition rate of cell viability was calculated. Inhibition rate of cell viability (%)=100−(A−B)/(C−B)×100 • A: Absorbance of a well containing test compound • B: Absorbance of a well without addition of cells • C: Absorbance of a well without addition of test compound
Background: Formazan colour is commonly taken as a measure of viable cells.

Consider `CCC(=O)N1c2ccccc2[C@H](Nc2ccc(NC(=O)CCCC(=O)Nc3ccc(N[C@@H]4C[C@H](C)N(C(=O)CC)c5cc(C6=CCNCC6)ccc54)cc3)cc2)C[C@@H]1C` (relative stereo) [Compound 10u, N^1-(4-(((2S,4R)-2-Methyl-1-propionyl-1,2,3,4-tetrahydroquinolin-4-yl)amino)phenyl)-N^5-(4-(((2S*,4R*)-2-methyl-1-propionyl-7-(1,2,3,6-tetrahydropyridin-4-yl)-1,2,3,4-tetrahydroquinolin-4-yl)amino)phenyl)glutaramide], for which the IC90 is 15.9 nM.
The molecule `CCC(=O)N1c2ccccc2[C@H](NCCCC2CCN(C(=O)Nc3ccc(N[C@@H]4C[C@H](C)N(C(=O)CC)c5ccccc54)cc3)CC2)C[C@@H]1C` (relative stereo) [Compound 12d, N-(4-(((2S,4R)-2-Methyl-1-propionyl-1,2,3,4-tetrahydroquinolin-4-yl)amino)phenyl)-4-(3-(((2S*,4R*)-2-methyl-1-propionyl-1,2,3,4-tetrahydroquinolin-4-yl)amino)propyl)piperidine-1-carboxamide] showed an IC90 of 34.9 nM.
The molecule `CCC(=O)N1c2ccccc2[C@H](NCCOCCOCc2cn(-c3ccc(N[C@@H]4C[C@H](C)N(C(=O)CC)c5ccccc54)cc3)nn2)C[C@@H]1C` (relative stereo) [Compound 12e, 1-((2S*,4R*)-2-Methyl-4-((2-(2-((1-(4-(((2S,4R)-2-methyl-1-propionyl-1,2,3,4-tetrahydroquinolin-4-yl)amino)phenyl)-1H-1,2,3-triazol-4-yl)methoxy)ethoxy)ethyl)amino)-3,4-dihydroquinolin-1(2H)-yl)propan-1-one] gave an IC90 of 73.7 nM.
As to `CCC(=O)N1c2ccccc2[C@H](NCCCCCCCCC(=O)Nc2ccc(N[C@@H]3C[C@H](C)N(C(=O)CC)c4ccccc43)cc2)C[C@@H]1C` (relative stereo) [Compound 12g, 9-(((2S*,4R*)-2-Methyl-1-propionyl-1,2,3,4-tetrahydroquinolin-4-yl)amino)-N-(4-(((2S,4R)-2-methyl-1-propionyl-1,2,3,4-tetrahydroquinolin-4-yl)amino)phenyl)nonanamide], the IC90 amounted to 31.1 nM.
In turn, `CCC(=O)N1c2ccccc2[C@H](NCCCCCCCC(=O)Nc2ccc(N[C@@H]3C[C@H](C)N(C(=O)CC)c4ccccc43)cc2)C[C@@H]1C` (relative stereo) [Compound 12h, 8-(((2S*,4R*)-2-Methyl-1-propionyl-1,2,3,4-tetrahydroquinolin-4-yl)amino)-N-(4-(((2S,4R)-2-methyl-1-propionyl-1,2,3,4-tetrahydroquinolin-4-yl)amino)phenyl)octanamide] registered an IC90 of 3.92 nM.
The molecule `CCC(=O)N1c2ccccc2[C@H](NCCCC(=O)NCCn2cc(-c3ccc(N[C@@H]4C[C@H](C)N(C(=O)CC)c5ccccc54)cc3)cn2)C[C@@H]1C` (relative stereo) [Compound 12i, 4-(((2S*,4R*)-2-Methyl-1-propionyl-1,2,3,4-tetrahydroquinolin-4-yl)amino)-N-(2-(4-(4-(((2S,4R)-2-methyl-1-propionyl-1,2,3,4-tetrahydroquinolin-4-yl)amino)phenyl)-1H-pyrazol-1-yl)ethyl)butanamide] registered an IC90 of 3.68 nM.
In the case of `CCC(=O)N1c2ccccc2[C@H](Nc2ccc(NC(=O)CCNC(=O)c3ccc(C4=N[C@@H](CC(=O)OC(C)(C)C)c5nnc(C)n5-c5sc(C)c(C)c54)cc3)cc2)C[C@@H]1C` (relative stereo) [Compound 13i, tert-Butyl 2-((S)-2,3,9-trimethyl-4-(4-((3-((4-(((2S*,4R*)-2-methyl-1-propionyl-1,2,3,4-tetrahydroquinolin-4-yl)amino)phenyl)amino)-3-oxopropyl)carbamoyl)phenyl)-6H-thieno[3,2-f][1,2,4]triazolo[4,3-a][1,4]diazepin-6-yl)acetate], the 90% effect level (IC90) was put at 3.37 nM.
As for `CCC(=O)N1c2ccccc2[C@H](Nc2ccc(NC(=O)CCCC(=O)Nc3ccc(C4=NCc5nnc(C)n5-c5sc(C)c(C)c54)cc3)cc2)C[C@@H]1C` (relative stereo) [Compound 14t, N^1-(4-(((2S*,4R*)-2-Methyl-1-propionyl-1,2,3,4-tetrahydroquinolin-4-yl)amino)phenyl)-N^5-(4-(2,3,9-trimethyl-6H-thieno[3,2-f][1,2,4]triazolo[4,3-a][1,4]diazepin-4-yl)phenyl)glutaramide], the 90% effect level (IC90) was put at 1.17 nM.
Under `CCC(=O)N1c2ccccc2[C@H](Nc2ccc(NC(=O)CNC(=O)C=C3CCC(N[C@@H]4C[C@H](C)N(C(=O)CC)c5ccccc54)CC3)cc2)C[C@@H]1C` (relative stereo) [Compound 15j, 2-(4-(((2S*,4R*)-2-Methyl-1-propionyl-1,2,3,4-tetrahydroquinolin-4-yl)amino)cyclohexylidene)-N-(2-((4-(((2S,4R)-2-methyl-1-propionyl-1,2,3,4-tetrahydroquinolin-4-yl)amino)phenyl)amino)-2-oxoethyl)acetamide] stands 0.52 nM.
Under `CCC(=O)N1c2ccccc2[C@H](Nc2ccc(NC(=O)CNC(=O)C(F)=C3CCC(N[C@@H]4C[C@H](C)N(C(=O)CC)c5ccccc54)CC3)cc2)C[C@@H]1C` (relative stereo) [Compound 15k, 2-Fluoro-2-(4-(((2S*,4R*)-2-methyl-1-propionyl-1,2,3,4-tetrahydroquinolin-4-yl)amino)cyclohexylidene)-N-(2-((4-(((2S,4R)-2-methyl-1-propionyl-1,2,3,4-tetrahydroquinolin-4-yl)amino)phenyl)amino)-2-oxoethyl)acetamide] stands 0.32 nM; under `Cc1sc2c(c1C)C(c1ccc(C(=O)NCCCNC(=O)c3ccc(C4=N[C@@H](CC(=O)OC(C)(C)C)c5nnc(C)n5-c5sc(C)c(C)c54)cc3)cc1)=N[C@@H](CC(=O)OC(C)(C)C)c1nnc(C)n1-2` [Compound 1b, Di-tert-butyl 2,2′-[(6S,6′S)-({[propane-1,3-diylbis(azanediyl)]bis(carbonyl)}bis(4,1-phenylene))bis(2,3,9-trimethyl-6H-thieno[3,2-f][1,2,4]triazolo[4,3-a][1,4]diazepine-4,6-diyl)]diacetate], 1.78 nM.
As for `CCC(=O)N1c2ccccc2[C@H](Nc2ccc(C(=O)N3CC4CC3CN4C(=O)c3ccc(N[C@@H]4C[C@H](C)N(C(=O)CC)c5ccccc54)cc3)cc2)C[C@@H]1C` [Compound 1k, 1,1′-{(2S,2′S,4R,4′R)-{[(2,5-Diazabicyclo[2.2.1]heptane-2,5-dicarbonyl)bis(4,1-phenylene)]bis(azanediyl)}bis[2-methyl-3,4-dihydroquinoline-4,1(2H)-diyl]}bis(propan-1-one)], the IC90 was 0.55 nM.
Next, `CCC(=O)N1c2ccccc2[C@H](Nc2ccc(C(=O)NCC(=O)CNC(=O)c3ccc(N[C@@H]4C[C@H](C)N(C(=O)CC)c5ccccc54)cc3)cc2)C[C@@H]1C` [Compound 1l, N,N′-(2-Oxopropane-1,3-diyl)bis(4-{[(2S,4R)-2-methyl-1-propionyl-1,2,3,4-tetrahydroquinolin-4-yl]amino}benzamide)]: 0.04 nM; `CCC(=O)N1c2ccccc2[C@H](Nc2ccc(C(=O)NC3CCN(C(=O)c4ccc(C5=NCc6nnc(C)n6-c6sc(C)c(C)c65)cc4)CC3)cc2)C[C@@H]1C` [Compound 1m, 4-{[(2S,4R)-2-Methyl-1-propionyl-1,2,3,4-tetrahydroquinolin-4-yl]amino}-N-{1-[4-(2,3,9-trimethyl-6H-thieno[3,2-f][1,2,4]triazolo[4,3-a][1,4]diazepin-4-yl)benzoyl]piperidin-4-yl}benzamide]: 0.53 nM.
`CCC(=O)N1c2ccccc2[C@H](Nc2ccc(C(=O)N3CC(NC(=O)c4ccc(C5=N[C@@H](CC(=O)OC(C)(C)C)c6nnc(C)n6-c6sc(C)c(C)c65)cc4)C3)cc2)C[C@@H]1C` [Compound 1n, tert-Butyl 2-[(S)-2,3,9-trimethyl-4-(4-{[1-(4-{[(2S,4R)-2-methyl-1-propionyl-1,2,3,4-tetrahydroquinolin-4-yl]amino}benzoyl)azetidin-3-yl]carbamoyl}phenyl)-6H-thieno[3,2-f][1,2,4]triazolo[4,3-a][1,4]diazepin-6-yl]acetate] had an IC90 of 0.49 nM.
Molecule `CCC(=O)N1c2ccccc2[C@H](Nc2ccc(C(=O)NCc3cn(-c4ccc(N[C@@H]5C[C@H](C)N(C(=O)CC)c6ccccc65)cc4)nn3)cc2)C[C@@H]1C` [Compound 3a, 4-{[(2S,4R)-2-Methyl-1-propionyl-1,2,3,4-tetrahydroquinolin-4-yl]amino}-N-{[1-(4-{[(2S,4R)-2-methyl-1-propionyl-1,2,3,4-tetrahydroquinolin-4-yl]amino}phenyl)-1H-1,2,3-triazol-4-yl]methyl}benzamide] came in with an IC90 of 0.04 nM.

The term IC90 denotes the concentration at which the effect reaches the 90% level. A high value points to a need for much substance.

For the origin of these results see US12054494B2, “Compound with anticancer activity” (KYOWA KIRIN CO., LTD., priority 2018, dated 2024).
